Measured values reported in publication PMC12622015 (bioRxiv, 2025).

Molecular target: T1, IRAK4 (Homo sapiens, UniProt Q9NWZ3)
T1 sequence (Q9NWZ3 1-460): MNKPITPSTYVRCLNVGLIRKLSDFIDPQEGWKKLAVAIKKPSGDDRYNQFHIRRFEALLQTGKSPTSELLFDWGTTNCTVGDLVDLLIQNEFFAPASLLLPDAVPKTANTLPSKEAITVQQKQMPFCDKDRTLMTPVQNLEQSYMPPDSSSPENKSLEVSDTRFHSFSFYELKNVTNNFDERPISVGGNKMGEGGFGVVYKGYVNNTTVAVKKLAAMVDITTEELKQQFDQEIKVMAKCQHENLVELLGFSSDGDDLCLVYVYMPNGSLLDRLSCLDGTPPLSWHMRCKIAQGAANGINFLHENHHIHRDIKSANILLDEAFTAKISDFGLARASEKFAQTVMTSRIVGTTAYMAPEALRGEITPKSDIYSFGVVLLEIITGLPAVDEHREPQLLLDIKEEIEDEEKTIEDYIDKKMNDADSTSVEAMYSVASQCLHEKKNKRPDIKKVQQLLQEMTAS
Experiment: HotSpot kinase assay
Assay type: biochemical

COc1cc(N2CCN(C(=O)CCCC(=O)Nc3cccc4c3CN(C3CCC(=O)NC3=O)C4=O)CC2)ccc1NC(=O)c1cccc(-c2cc[nH]n2)n1 (stereo not shown) [PSP-0119, N-(4-(4-(5-((2-(2,6-dioxopiperidin-3-yl)-1-oxoisoindolin-4-yl)amino) −5-oxopentanoyl)piperazin-1-yl)-2-methoxyphenyl)-6-(1H-pyrazol-3-yl)picolinamide] was tested, and the IC50 was 2.83 nM.
